# Experimental data taken from US20250114286A1, “METHOD FOR STABILIZING CERAMIDE AND COSMETIC COMPOSITION COMPRISING STABILIZED CERAMIDE” (COSMECCA KOREA Co., Ltd., priority 2023, published 2025).
# Assays:
# [1] = tested on: AQP3; assay: Moisturizing efficacy: AQP3 mRNA expression by qRT-PCR in UVB-irradiated HDFa cells; type: cell-based, Human; conditions: UVB 15 mJ/cm^2, positive control at 0.01%
# Method: In order to confirm the moisturizing efficacy of ceramide and bioactive substance-containing nanoparticle capsule, the effect on AQP3 expression was evaluated. After inoculating Human dermal fibroblast (HDFa) cell lines, they were cultured at 37° C. for 24 hours under 5% CO2 in Fibroblast Basal Medium (Medium 106) containing 100 IU/mL penicillin and 100 μg/mL streptomycin. The medium of each well was removed and replaced with fresh serum-free medium. Each well was subjected to pretreatment for 4 hours by administering the samples corresponding to Example 1 and Comparative Examples 1 and 2 at each concentration. 15 mJ/cm^2 UVB was irradiated to each well plate by a UVB irradiation device (vilber loumet, France). The sample was treated with the diluted serum-free medium, and then further cultured for 24 hours. At this time, a negative control was treated with PBS, and a positive control was treated with Hyaluronic acid at 0.01%. After the cell culture was completed, the cells were lysed using Ribo Ex™ Total RNA Isolation Solution (GeneAll Biotechnology, Korea) and scraper, and then 0.2 mL chloroform (Sigma-Aldrich, USA) was added thereto to perform centrifugation (12,000 rpm, 4° C., 30 minutes). […]
# [2] = DPPH radical scavenging activity test; type: biochemical; conditions: positive control at 0.01%
# Method: In order to confirm the anti-oxidation efficacy of ceramide and bioactive material-containing nanoparticle capsules, a DPPH radical scavenging activity test was conducted. The DPPH radical scavenging activity was measured by the reducing power of the sample relative to the DPPH radical. A 0.4 mM solution was prepared by dissolving DPPH (1,1-Diphenyl-2-picrylhydrazyl) reagent in ethanol. Then 100 μL of the solution of each sample corresponding to Example 1, Comparative Examples 1, and 2, or positive control BHT (Butylated hydroxyl toluene or 2,6-Di-tert-butyl-p-cresol) was dissolved in ethanol, was added to 100 μL of the 0.4 mM DPPH solution in a 96 well plate and mixed. At this time, ethanol was treated as a negative control, and after mixing, the mixture reacted at 37° C. for 30 minutes. Absorbance was measured at 517 nm using ELISA reader, and the DPPH radical scavenging ability (%) of the sample or BHT as a positive control was calculated using the following formula.
# DPPH radical scavenging ability (%)={1−(absorbance of positive control or sample/absorbance of control)}×100
Molecule,Relative AQP3 expression (% of control) [1],DPPH radical scavenging ability (%) [2] [%]
Hyaluronic acid,149.52 % of control,–
"Cc1cc(C(C)(C)C)c(O)c(C(C)(C)C)c1 [BHT, 2,6-Di-tert-butyl-p-cresol]",–,62.08
